Drawing on US20110172236A1, “SUBSTITUTED ARYL SULFONE DERIVATIVES AS CALCIUM CHANNEL BLOCKERS” (priority 2008, published 2011), this text covers IC50 for 6 molecules.

In general, IC50 refers to the concentration at which inhibition is half-maximal.

T1 sequence (Q00975 whole entry): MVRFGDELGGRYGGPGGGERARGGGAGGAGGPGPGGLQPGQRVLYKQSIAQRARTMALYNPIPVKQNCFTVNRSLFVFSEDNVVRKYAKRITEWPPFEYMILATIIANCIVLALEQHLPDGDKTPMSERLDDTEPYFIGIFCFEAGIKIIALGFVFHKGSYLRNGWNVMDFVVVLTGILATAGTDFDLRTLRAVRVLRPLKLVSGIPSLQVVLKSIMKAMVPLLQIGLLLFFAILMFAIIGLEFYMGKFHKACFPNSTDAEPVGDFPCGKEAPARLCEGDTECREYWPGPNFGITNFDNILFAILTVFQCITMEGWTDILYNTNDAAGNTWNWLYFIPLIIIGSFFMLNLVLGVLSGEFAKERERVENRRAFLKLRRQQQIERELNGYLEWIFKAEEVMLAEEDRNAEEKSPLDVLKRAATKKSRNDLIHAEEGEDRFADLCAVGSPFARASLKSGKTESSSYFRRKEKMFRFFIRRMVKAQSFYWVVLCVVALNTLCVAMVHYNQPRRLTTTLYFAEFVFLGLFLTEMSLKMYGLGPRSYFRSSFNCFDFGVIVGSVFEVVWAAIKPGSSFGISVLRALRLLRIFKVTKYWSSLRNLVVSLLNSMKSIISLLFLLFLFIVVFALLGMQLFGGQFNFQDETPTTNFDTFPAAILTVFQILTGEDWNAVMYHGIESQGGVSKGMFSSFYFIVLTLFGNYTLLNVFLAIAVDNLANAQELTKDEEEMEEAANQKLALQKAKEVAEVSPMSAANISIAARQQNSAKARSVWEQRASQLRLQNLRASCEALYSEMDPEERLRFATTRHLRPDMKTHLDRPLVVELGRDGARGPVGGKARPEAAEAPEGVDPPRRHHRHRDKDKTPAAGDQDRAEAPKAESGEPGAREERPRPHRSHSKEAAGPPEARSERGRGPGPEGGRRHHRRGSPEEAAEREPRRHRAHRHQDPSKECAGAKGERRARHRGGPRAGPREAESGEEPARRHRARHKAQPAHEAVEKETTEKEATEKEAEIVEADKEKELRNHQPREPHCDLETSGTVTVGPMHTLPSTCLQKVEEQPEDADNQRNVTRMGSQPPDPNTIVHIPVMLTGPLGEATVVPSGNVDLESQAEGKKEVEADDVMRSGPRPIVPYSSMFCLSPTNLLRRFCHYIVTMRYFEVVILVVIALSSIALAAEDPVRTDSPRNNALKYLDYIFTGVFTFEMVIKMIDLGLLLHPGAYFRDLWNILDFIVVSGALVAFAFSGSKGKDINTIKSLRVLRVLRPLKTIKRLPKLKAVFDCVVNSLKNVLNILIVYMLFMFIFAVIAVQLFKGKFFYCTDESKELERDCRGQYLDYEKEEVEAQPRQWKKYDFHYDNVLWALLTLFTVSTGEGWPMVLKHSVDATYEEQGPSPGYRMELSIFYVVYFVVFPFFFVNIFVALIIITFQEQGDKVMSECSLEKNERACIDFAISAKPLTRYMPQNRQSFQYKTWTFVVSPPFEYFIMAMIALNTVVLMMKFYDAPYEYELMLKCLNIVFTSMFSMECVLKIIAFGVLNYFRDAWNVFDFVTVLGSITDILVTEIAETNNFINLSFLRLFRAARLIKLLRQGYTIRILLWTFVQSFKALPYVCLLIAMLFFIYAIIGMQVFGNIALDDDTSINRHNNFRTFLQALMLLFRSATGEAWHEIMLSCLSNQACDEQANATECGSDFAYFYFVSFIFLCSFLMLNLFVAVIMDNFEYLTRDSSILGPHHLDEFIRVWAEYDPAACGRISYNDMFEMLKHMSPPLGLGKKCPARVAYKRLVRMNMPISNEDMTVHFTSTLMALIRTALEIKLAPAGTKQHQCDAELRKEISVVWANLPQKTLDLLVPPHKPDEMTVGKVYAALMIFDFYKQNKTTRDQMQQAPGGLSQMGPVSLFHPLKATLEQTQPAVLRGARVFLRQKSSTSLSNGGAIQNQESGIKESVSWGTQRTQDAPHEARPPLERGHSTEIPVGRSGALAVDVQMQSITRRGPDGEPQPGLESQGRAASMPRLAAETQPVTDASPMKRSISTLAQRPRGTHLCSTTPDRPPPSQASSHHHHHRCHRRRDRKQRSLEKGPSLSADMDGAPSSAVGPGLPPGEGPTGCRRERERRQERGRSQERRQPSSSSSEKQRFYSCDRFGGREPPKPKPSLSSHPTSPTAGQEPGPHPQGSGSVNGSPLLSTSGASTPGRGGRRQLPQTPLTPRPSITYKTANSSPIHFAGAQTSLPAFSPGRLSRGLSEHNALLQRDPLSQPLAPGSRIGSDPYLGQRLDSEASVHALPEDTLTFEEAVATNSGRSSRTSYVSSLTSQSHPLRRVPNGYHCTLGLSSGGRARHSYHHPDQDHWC

The test addresses T1, Human Cav2.2 channels (Homo sapiens, UniProt Q00975).
T1 construct: expressed in transfected cells
In words: Fluorescent assay for Cav2.2 channels using potassium depolarization (Assay Example 1). Type of test: cell-based. Particulars: pre-incubation potassium concentration not stated. An excerpt:
Assay Example 1: Fluorescent Assay for Cav2.2 Channels Using Potassium Depolarization to Initiate Channel Opening.
Human Cav2.2 channels were stably expressed in KEK293 cells along with alpha2-delta and beta subunits of voltage-gated calcium channels. An inwardly rectifying potassium channel (Kir2.3) was also expressed in these cells to allow more precise control of the cell membrane potential by extracellular potassium concentration. At low bath potassium concentration, the membrane potential is relatively negative, and is depolarized as the bath potassium concentration is raised. In this way, the bath potassium concentration can be used to regulate the voltage-dependent conformations of the channels. Compounds are incubated with cells in the presence of low (4 mM) potassium or elevated (12, 25 or 30 mM) potassium to determine the affinity for compound block of resting (closed) channels at 4 mM potassium or affinity for block of open and inactivated channels at 12, 25 or 30 mM potassium. After the incubation period, Cav2.2 channel opening is triggered by addition of higher concentration of potassium (70 mM final concentration) to further depolarize the cell. The degree of state-dependent block can be estimated from the inhibitory potency of compounds after incubation in different potassium concentrations.
Calcium influx through Cav2.2 channels is determined using a calcium-sensitive fluorescent dye in combination with a fluorescent plate reader. Fluorescent changes were measured with either a VIPR (Aurora Instruments) or FLIPR (Molecular Devices) plate reader.
• 1. Seed cells in Poly-D-Lysine Coated 96- or 384-well plate and keep in a 37° C.-10% CO2 incubator overnight • 2. Remove media^1, wash cells with 0.2 ml (96-well plate) or 0.05 ml (384-well plate) Dulbecco's Phosphate Buffered Saline (D-PBS) with calcium & magnesium (Invitrogen; 14040) • 3. Add 0.1 ml (96-well plate) or 0.05 ml (384-well plate) of 4 μM fluo-4 (Molecular Probes; F-14202) and 0.02% Pluronic acid (Molecular Probes; P-3000) prepared in D-PBS with calcium & magnesium (Invitrogen; 14040) supplemented with 10 mM Glucose & 10 mM Hepes/NaOH; pH 7.4 • 4. Incubate in the dark at 25° C. for 60-70 min • 5. Remove dye^2, wash cells with 0.1 ml (96-well plate) or 0.06 ml (384-well plate) of 4, 12, 25, or 30 mM Potassium Pre-polarization Buffer. (PPB) • 6. Add 0.1 ml (96-well plate) or 0.03 ml (384-well plate) of 4, 12, 25, 30 mM PPB. with or without test compound • 7. Incubate in the dark at 25° C. for 30 min • 8. Read cell plate on VIPR instrument, Excitation=480 nm, Emission 535 nm • 9. With VIPR continuously reading, add 0.1 ml (96-well plate) or 0.03 ml (384-well plate) of Depolarization Buffer, which is 2× the final assay concentration, to the cell plate.
For `CC(C)(C1CCN(Cc2ccc(F)cc2)C(=O)C1)S(=O)(=O)c1cccc(C(F)(F)F)c1` (stereo not drawn), the IC50 came out at 220 nM.
On to `CC(C)(C1CCN(c2ccccc2)C(=O)C1)S(=O)(=O)c1cccc(C(F)(F)F)c1` (stereo not drawn), for which the IC50 turned out to be 360 nM.
Consider `CC(C)([C@H]1CCN(c2ccc(C(F)(F)F)cn2)C(=O)C1)S(=O)(=O)c1cccc(C(F)(F)F)c1`, for which the IC50 is 640 nM.
To `CC(C)([C@@H]1CCN(c2ccc(C(F)(F)F)cn2)C(=O)C1)S(=O)(=O)c1cccc(C(F)(F)F)c1` belongs 280 nM; to `CC(C)(C1CCC(=O)N(Cc2ccc(Cl)cc2)C1)S(=O)(=O)c1cccc(C(F)(F)F)c1` (stereo not drawn), 890 nM; to `CC(C)(C1CC(=O)N(c2ccc(C(F)(F)F)cc2)C1)S(=O)(=O)c1cccc(C(F)(F)F)c1` (stereo not drawn), 790 nM.
